Test results reported in patent US20140336184A1, “METHOD TO ENHANCE COGNITION” (priority 2011, published 2014).

Assays:
PKR [1] = molecular target: T1, PKR (Rattus norvegicus, UniProt Q63184); settings: dose of 0.1 mg/kg i.p. (Ingrand et al., 2007); cited from earlier work
T1 sequence (Q63184 1-513): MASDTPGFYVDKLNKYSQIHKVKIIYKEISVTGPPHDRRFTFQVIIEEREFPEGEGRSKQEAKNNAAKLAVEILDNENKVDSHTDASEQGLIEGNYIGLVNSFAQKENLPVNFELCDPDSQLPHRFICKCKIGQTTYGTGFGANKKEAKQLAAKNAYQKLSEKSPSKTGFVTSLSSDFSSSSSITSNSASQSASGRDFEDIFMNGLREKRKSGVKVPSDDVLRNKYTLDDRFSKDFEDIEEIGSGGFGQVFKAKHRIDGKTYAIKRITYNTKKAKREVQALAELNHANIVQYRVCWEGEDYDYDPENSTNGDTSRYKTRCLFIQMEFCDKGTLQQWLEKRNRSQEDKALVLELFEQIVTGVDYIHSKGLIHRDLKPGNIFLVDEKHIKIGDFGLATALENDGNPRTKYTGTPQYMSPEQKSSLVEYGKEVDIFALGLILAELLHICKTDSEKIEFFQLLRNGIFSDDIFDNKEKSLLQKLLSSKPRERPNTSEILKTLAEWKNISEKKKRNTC

[2] = system: CA1 neurons in WT hippocampal slices; format: cell-based, mouse
[3] = system: CA1 neurons in Pkr−/− hippocampal slices; assay: Whole-cell patch clamp recording of synaptic currents; format: cell-based, mouse; settings: PKRi
[4] = system: hippocampal slices from Pkr−/− mice; assay: Field recording (population spikes) in CA1 of hippocampal slices; format: cell-based, mouse; settings: PKRi
Description: Field recording: horizontal hippocampal slices ([…]) were cut from brains of WT or age-matched Pkr^−/− littermates in 4° C. artificial cerebrospinal fluid (ACSF) and kept in ACSF at room temperature for at least one hr before recording, as described (Zhu et al., 2005). Slices were maintained in an interface-type chamber perfused with oxygenated ACSF (95% O2 and 5% CO2) containing in mM: 124 NaCl, 2.0 KCl, 1.3 MgSO4, 2.5 CaCl2, 1.2 KH2PO4, 25 NaHCO3, and 10 glucose (2-3 ml/min). Bipolar stimulating electrodes were placed in the CA1 stratum radiatum to stimulate Schaffer collateral and commissural fibers. Field potentials were recorded using ACSF-filled micropipettes at 28-29° C. The recording electrodes were placed in the stratum radiatum for field excitatory postsynaptic potentials (fEPSPs), and stratum pyramidale for population spikes. The stimulus strength of the 0.1 ms pulses was adjusted to evoke 30-35% of maximum response for fEPSPs, and 50% of maximal response for population spikes. A stable baseline of responses was established for at least 30 min at 0.033 Hz. Tetanic LTP was induced by high-frequency stimulation in brief trains (100 Hz, 1 s), applied either as a single train or four trains separated by 5 min intervals. A short train consisted of 5 stimuli (100 Hz within-burst). […]

adult WT mice = assay: Video EEG recordings in freely moving mice; format: in vivo, mouse
Excerpt: Pkr knockout (Pkr^−/−) mice (Abraham et al., 1999) were back-crossed for at least eight generations to 129SvEv mice. Mice were weaned at the third postnatal week and genotyped by PCR. Briefly, the mutant and corresponding WT alleles are detected by a four-primer PCR assay in which Oligo-1 (5′-GGAACITrGGAGCAATGGA-3′) and Oligo-2 (5′-[…]-3′) give a WT band of 225 base-pair fragment and Oligo-3 (5′-TGTTCTGTGGCTATCAGGG-3′) and Oligo-4 (5′-[…]-3′) give a 432 base-pair fragment from the deleted allele. eIF2α^+/S51A mice were previously described (Costa-Mattioli et al., 2007; Scheuner et al., 2001). All experiments were performed on 8-16 weeks old males. The mice were kept on a 12 h light/dark cycle, and the behavioral experiments were always conducted during the light phase of the cycle. The mice had access to food and water ad libitum, except during tests. […]
PKRi (Calbiochem, San Diego), a potent ATP-binding-site-directed inhibitor of PKR which blocks PKR autophosphorylation (Jammi et al., 2003; Shimazawa and Hara, 2006), was prepared as a 20 mM stock solution in DMSO (dimethyl sufloxide). PKRi was freshly dissolved in saline and then injected intraperitoneally (i.p.) at a dose of 0.1 mg/kg and the EEG was recorded 1 hr after injection. A digital video camera simultaneously monitored behavior during the EEG recordings. […]

[5] = system: hippocampal slices from WT mice; assay: Field recording (population spikes, fEPSPs) in CA1 of hippocampal slices; format: cell-based, mouse
Description: Field recording: horizontal hippocampal slices ([…]) were cut from brains of WT or age-matched Pkr^−/− littermates in 4° C. artificial cerebrospinal fluid (ACSF) and kept in ACSF at room temperature for at least one hr before recording, as described (Zhu et al., 2005). Slices were maintained in an interface-type chamber perfused with oxygenated ACSF (95% O2 and 5% CO2) containing in mM: 124 NaCl, 2.0 KCl, 1.3 MgSO4, 2.5 CaCl2, 1.2 KH2PO4, 25 NaHCO3, and 10 glucose (2-3 ml/min). Bipolar stimulating electrodes were placed in the CA1 stratum radiatum to stimulate Schaffer collateral and commissural fibers. Field potentials were recorded using ACSF-filled micropipettes at 28-29° C. The recording electrodes were placed in the stratum radiatum for field excitatory postsynaptic potentials (fEPSPs), and stratum pyramidale for population spikes. The stimulus strength of the 0.1 ms pulses was adjusted to evoke 30-35% of maximum response for fEPSPs, and 50% of maximal response for population spikes. A stable baseline of responses was established for at least 30 min at 0.033 Hz. Tetanic LTP was induced by high-frequency stimulation in brief trains (100 Hz, 1 s), applied either as a single train or four trains separated by 5 min intervals. A short train consisted of 5 stimuli (100 Hz within-burst). When indicated, ACSF was supplemented with anisomycin (Calbiochem, Calif.), PKRi (Calbiochem, Calif.), bicuculline (Tocris) or diazepam (Sigma-Aldrich). It should be noted that the inventors used bicuculline free base which only blocks GABAA receptor rather than bicuculline-M (bicuculline methiodide, methobromide or methochloride) which in addition to GABAA receptor also blocks small conductance (SK) calcium-activated potassium channels (Debarbieux et al., 1998). […] To reduce day-to-day variations, whenever possible simultaneous recordings (in the same chamber) were obtained from slices from Pkr^−/− mice and WT littermates treated with drugs or vehicle. Statistical analysis was performed using t-test and two-way ANOVA. All data are presented as means±SEM and “n” indicates the number of slices.

WT hippocampal slices = assay: Tetanic LTP (E-LTP/L-LTP) in hippocampal slices; format: cell-based, mouse
Description: (§1) Field recording: horizontal hippocampal slices ([…]) were cut from brains of WT or age-matched Pkr^−/− littermates in 4° C. artificial cerebrospinal fluid (ACSF) and kept in ACSF at room temperature for at least one hr before recording, as described (Zhu et al., 2005). Slices were maintained in an interface-type chamber perfused with oxygenated ACSF (95% O2 and 5% CO2) containing in mM: 124 NaCl, 2.0 KCl, 1.3 MgSO4, 2.5 CaCl2, 1.2 KH2PO4, 25 NaHCO3, and 10 glucose (2-3 ml/min). Bipolar stimulating electrodes were placed in the CA1 stratum radiatum to stimulate Schaffer collateral and commissural fibers. Field potentials were recorded using ACSF-filled micropipettes at 28-29° C. The recording electrodes were placed in the stratum radiatum for field excitatory postsynaptic potentials (fEPSPs), and stratum pyramidale for population spikes. The stimulus strength of the 0.1 ms pulses was adjusted to evoke 30-35% of maximum response for fEPSPs, and 50% of maximal response for population spikes. A stable baseline of responses was established for at least 30 min at 0.033 Hz. Tetanic LTP was induced by high-frequency stimulation in brief trains (100 Hz, 1 s), applied either as a single train or four trains separated by 5 min intervals. A short train consisted of 5 stimuli (100 Hz within-burst). When indicated, ACSF was supplemented with anisomycin (Calbiochem, Calif.), PKRi (Calbiochem, Calif.), bicuculline (Tocris) or diazepam (Sigma-Aldrich). It should be noted that the inventors used bicuculline free base which only blocks GABAA receptor rather than bicuculline-M (bicuculline methiodide, methobromide or methochloride) which in addition to GABAA receptor also blocks small conductance (SK) calcium-activated potassium channels (Debarbieux et al., 1998). […] To reduce day-to-day variations, whenever possible simultaneous recordings (in the same chamber) were obtained from slices from Pkr^−/− mice and WT littermates treated with drugs or vehicle. Statistical analysis was performed using t-test and two-way ANOVA. […]

[6] = system: Pkr−/− hippocampal slices; format: cell-based, mouse
Description: as §1

WT mice = assay: Contextual and auditory fear conditioning; format: in vivo, mouse; settings: PKRi 0.1 mg/kg i.p. immediately after training, n=8
Description: The experimenter was blind to the genotype for all behavioral tests. Fear conditioning was performed as previously described (Costa-Mattioli et al., 2007). Mice were first handled for 3-5 min for 3 days and then habituated to the conditioning chamber for 20 min for another 3 days. On the training day, after 2 min in the conditioning chamber, mice received a pairing of a tone (2800 Hz, 85 db, 30 s) with a co-terminating foot-shock (0.35 mA, 1 s), after which they remained in the chamber for two additional min and then were returned to their home cages. Mice were tested 24 hr after training for “freezing” (immobility with the exception of respiration) in response to the tone (in a chamber to which they had not been conditioned) and to the training context (training chamber).
During testing for auditory fear conditioning, mice were placed in the chamber and freezing responses were recorded during the initial 2 min (pre-CS period) and during the last 3 min when the tone was played. Mice were returned to their cages 30 s after the end of the tone. […] For extinction trials, freezing in response to the conditioned context was assessed for 5 min, 24 hr, 48 hr, 72 hr and 96 hr after training and normalized to the amount of freezing obtained at 24 hr. For all tests, freezing behavior was determined at 5 s intervals during a 5 min period. […]

PKR [7] = molecular target: T2, PKR (Homo sapiens, UniProt P19525); settings: Jammi et al., 2003; Shimazawa and Hara, 2006; cited from earlier work
T2 sequence (P19525 whole entry): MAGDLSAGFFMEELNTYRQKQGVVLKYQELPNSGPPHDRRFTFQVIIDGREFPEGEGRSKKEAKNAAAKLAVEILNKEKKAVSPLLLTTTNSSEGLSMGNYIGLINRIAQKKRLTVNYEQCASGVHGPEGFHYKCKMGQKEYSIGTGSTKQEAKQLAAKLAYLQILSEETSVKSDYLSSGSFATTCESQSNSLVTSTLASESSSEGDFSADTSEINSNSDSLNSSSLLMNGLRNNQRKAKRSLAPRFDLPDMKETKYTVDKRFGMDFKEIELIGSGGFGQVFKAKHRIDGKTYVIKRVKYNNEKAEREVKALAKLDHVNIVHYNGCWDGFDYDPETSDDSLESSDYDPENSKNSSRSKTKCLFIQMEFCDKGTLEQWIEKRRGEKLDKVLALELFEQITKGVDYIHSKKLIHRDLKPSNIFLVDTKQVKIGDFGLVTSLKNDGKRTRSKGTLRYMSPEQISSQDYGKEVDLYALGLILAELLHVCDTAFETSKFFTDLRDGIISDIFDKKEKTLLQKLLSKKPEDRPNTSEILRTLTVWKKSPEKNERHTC

PKR [8] = molecular target: T2, PKR; settings: final concentration of 1 μM (Page et al., 2006; Wang et al., 2007); cited from earlier work
[9] = PKRi 1 μM, −60 mV, kynurenic acid
[10] = PKRi 1 μM, −60 mV, kynurenic acid 2 mM, TTX 1 μM

O=C1Nc2ccc3ncsc3c2/C1=C/c1cnc[nH]1 [PKRi]
PKR activity in the hippocampus in vivo (PKR [1]): known to block PKR activity in the hippocampus in vivo | Evoked EPSCs ([2]; PKRi 1 μM bath application, picrotoxin 100 μM, −70 mV): no effect | Amplitude of sIPSCs [2, 9]: not amplitude | Frequency of sIPSCs [2, 9]: decreases | Amplitude of mIPSCs [2, 10]: but not their amplitude | Frequency of mIPSCs [2, 10]: decreased | Amplitude of pharmacologically isolated monosynaptic eIPSCs ([2]; PKRi bath-application, 50 μM APV, 10 μM CNQX, 10 μM CGP55845, 0 mV, half-maximal stimulation): reduced | Electrically isolated eIPSCs ([2]; PKRi, holding potential 0 mV, half-maximal stimulation): Reduced | Amplitude or frequency of sEPSCs, mEPSCs or eEPSCs ([2]; WT slices treated with PKRi): not significantly changed | mIPSCs Rise Time 10%-90% ([2]; WT slices treated with PKRi): 1.36 ± 0.07 ms | mIPSCs τW ([2]; WT slices treated with PKRi): 21.28 ± 1.24 ms | sIPSCs Rise Time 10%-90% ([2]; WT slices treated with PKRi): 1.68 ± 0.18 ms | sIPSCs τW ([2]; WT slices treated with PKRi): 22.89 ± 0.78 ms | Paired-pulse depression of IPSCs (IPSC2/IPSC1) ([2]; at 50 ms inter-stimulus interval): reduced | Amplitude of evoked IPSCs [3]: did not alter | Population spikes [4]: no effect | Abnormal EEG activity present (mice affected) (adult WT mice; PKRi 0.1 mg/kg i.p., recorded one hour after injection, absent in all WT controls (n=6), p<0.01): 6 out of 7 | Cortical EEG activity (adult WT mice; PKRi 0.1 mg/kg, adult WT mice): induces acute spiking (d) and rhythmic bursts (e) | Decrease of CA1 population spike amplitude during short high frequency train (cumulative inhibition) ([5]; 5 pulses at 100 Hz): minimal or no high-frequency stimulation-induced decrease in spike amplitude | Duration of burst ([5]; PKRi 1 μM, bicuculline 2 μM): increased | Number of evoked spikes ([5]; PKRi 1 μM, bicuculline 2 μM): increased | After-discharges after a single stimulus ([5]; PKRi 1 μM, in presence of bicuculline 2 μM, half-maximal stimulation at 0.03 Hz): pronounced after-discharges | Initial slope of EPSPs ([5]; PKRi 1 μM, single stimulus): did not alter | Presynaptic afferent volley ([5]; PKRi 1 μM, single stimulus): did not alter | Amplitude of population spikes ([5]; PKRi 1 μM, single stimulus, WT slices): enhanced | Population spikes (firing) in slices pre-treated with bicuculline ([5]; WT slices pre-treated with the GABAA antagonist bicuculline): no further enhancement of firing | LTP after a single high frequency train (100 Hz for 1 s) (WT hippocampal slices; PKRi 1 μM, WT slices, at 220 min p<0.001): converts E-LTP into L-LTP | LTP elicited by a single 100 Hz train (1 s) ([6]; PKRi, Pkr−/− slices): did not further potentiate LTP | Auditory fear memory (freezing 24 hr after training) (WT mice): enhanced | Contextual fear memory (freezing 24 hr after training) (WT mice): enhanced | PKR autophosphorylation (PKR [7]): blocks | PKR activity ex-vivo (PKR [8]): known to block PKR activity ex-vivo

COc1ccc(C[C@H]2NC[C@H](O)[C@H]2OC(C)=O)cc1 [anisomycin]
Facilitated L-LTP after a single train ([6]; anisomycin, Pkr−/− slices, at 220 min p<0.01): suppressed

CN1C(=O)CN=C(c2ccccc2)c2cc(Cl)ccc21 [diazepam]
L-LTP induction by four trains at 100 Hz (WT hippocampal slices): blocked L-LTP induction | L-LTP induced by four tetanic trains (WT hippocampal slices; low concentration of diazepam (11 μM), WT slices): no effect | L-LTP after a single train [6]: prevented the induction of L-LTP
